What was measured:
[1] = system: Human immunodeficiency virus 1; assay: Antiviral activity against HIV1 with protease V18C mutant in MT4 cells by viral spread assay; settings: Human immunodeficiency virus 1, MT4; read-out: CIC95
[2] = system: Human immunodeficiency virus 1; assay: Antiviral activity against HIV1 with protease K60C mutant in MT4 cells by viral spread assay; settings: Human immunodeficiency virus 1, MT4; read-out: CIC95
[3] = molecular target: Protease (Human immunodeficiency virus 1, UniProt Q9YQ12); assay: Inhibition of wild type HIV1 NL4-3 protease
[4] = Inhibition of HIV1 NL4-3 protease V18C mutant; design: species or system Human immunodeficiency virus 1
[5] = system: Human immunodeficiency virus 1; assay: Antiviral activity against HIV1 NL4-3 in MT4 cells by viral spread assay; format: functional; settings: Human immunodeficiency virus 1, NL4-3, MT4; read-out: CIC95
[6] = Inhibition of HIV1 NL4-3 protease K60C mutant; design: species or system Human immunodeficiency virus 1

Protease, sequence (Q9YQ12 whole entry): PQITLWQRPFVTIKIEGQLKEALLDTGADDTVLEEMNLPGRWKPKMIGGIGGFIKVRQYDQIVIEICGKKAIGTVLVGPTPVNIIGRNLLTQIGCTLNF

Q: With `O=C(N[C@H]1c2ccccc2OC[C@H]1O)[C@H](Cc1ccccc1)C[C@H](O)C(=O)N1COC2(CCCC2)[C@H]1C(=O)NCc1c(Cl)cccc1Cl` as the compound, how does the IC95 [1] read?
A: Its IC95 is 500 nM.

Q: And the IC95 [2]?
A: The IC95 was 250 nM.

Q: And the IC50 [3]?
A: Its IC50 is 0.11 nM.

Q: And the IC50 [4]?
A: Its IC50 is 1 nM.

Q: What about the IC95 [5] of the same compound?
A: The IC95 was 62.5 nM.

Q: And the IC50 [6]?
A: The IC50 was 0.5 nM.

Q: With `Cc1nsc(C)c1CNC(=O)[C@H]1N(C(=O)[C@@H](O)C[C@@H](Cc2ccccc2)C(=O)N[C@H]2c3ccccc3OC[C@H]2O)COC12CCCC2` as the compound, how does the IC95 [1] read?
A: Its IC95 is 250 nM.

Q: What about the IC95 [2] of the same compound?
A: Its IC95 is 250 nM.

Q: And the IC50 [3]?
A: The IC50 was 0.1 nM.

Q: What about the IC50 [4] of the same compound?
A: The IC50 was 0.8 nM.

Q: And the IC95 [5]?
A: The IC95 was 125 nM.

Q: What about the IC50 [6] of the same compound?
A: The IC50 was 0.4 nM.

Q: For `Cc1cccc(C)c1CNC(=O)[C@H]1N(C(=O)[C@@H](O)C[C@@H](Cc2ccccc2)C(=O)N[C@H]2c3ccccc3OC[C@H]2O)COC1(C)C`, which IC95 [1] is on record?
A: The IC95 was 62 nM.

Q: And the IC95 [2]?
A: Its IC95 is 500 nM.

Q: And the IC50 [3]?
A: The IC50 was 0.17 nM.

Q: What about the IC50 [4] of the same compound?
A: The IC50 was 1.3 nM.

Q: What about the IC95 [5] of the same compound?
A: The IC95 was 15 nM.

Q: What about the IC50 [6] of the same compound?
A: The IC50 was 2.2 nM.

Q: Which IC50 [3] does the source give for `Cc1cccc(C)c1CNC(=O)[C@@H]1CCCCN1C(=O)[C@@H](O)C[C@@H](Cc1ccccc1)C(=O)N[C@H]1c2ccccc2OC[C@H]1O` here?
A: Its IC50 is 42 nM.

Q: What about the IC95 [5] of the same compound?
A: Its IC95 is 1000 nM.

Q: Which IC50 [3] does the source give for `Cc1cccc(C)c1CNC(=O)[C@@H]1CCN1C(=O)[C@@H](O)C[C@@H](Cc1ccccc1)C(=O)N[C@H]1c2ccccc2OC[C@H]1O` here?
A: The IC50 was 90 nM.

Q: And the IC95 [5]?
A: Its IC95 is 1000 nM.

Q: Which IC95 [1] does the source give for `Cc1cccc(C)c1CNC(=O)[C@H]1N(C(=O)[C@@H](O)C[C@@H](Cc2ccccc2)C(=O)N[C@H]2c3ccccc3OC[C@H]2O)CCC1(C)C` here?
A: Its IC95 is 31 nM.

Q: And the IC95 [2]?
A: The IC95 was 500 nM.

Q: And the IC50 [3]?
A: Its IC50 is 0.14 nM.

Q: And the IC50 [4]?
A: The IC50 was 0.4 nM.

Q: What about the IC95 [5] of the same compound?
A: Its IC95 is 15 nM.

Q: What about the IC50 [6] of the same compound?
A: The IC50 was 1.6 nM.

Q: What does the source list for `Cc1noc(C)c1CNC(=O)[C@H]1N(C(=O)[C@@H](O)C[C@@H](Cc2ccccc2)C(=O)N[C@H]2c3ccccc3OC[C@H]2O)COC12CCCC2`?
A: IC95 [1]: 1000 nM; IC95 [2]: 500 nM; IC50 [3]: 0.2 nM; IC50 [4]: 3.2 nM; IC95 [5]: 250 nM; IC50 [6]: 1.5 nM

Q: Which IC50 [3] does the source give for `Cc1cccc(C)c1CNC(=O)[C@@H]1CCCN1C(=O)[C@@H](O)C[C@@H](Cc1ccccc1)C(=O)N[C@H]1c2ccccc2OC[C@H]1O` here?
A: Its IC50 is 14 nM.

Q: And the IC95 [5]?
A: The IC95 was 1000 nM.

Q: Which results are given for `Cc1cccc(C)c1CNC(=O)[C@H]1N(C(=O)[C@@H](O)C[C@@H](Cc2ccccc2)C(=O)N[C@H]2c3ccccc3OC[C@H]2O)COC12CCCC2`?
A: IC95 [1]: 62 nM; IC95 [2]: 125 nM; IC50 [3]: 0.1 nM; IC50 [4]: 0.5 nM; IC95 [5]: 8 nM

Q: With `CC(C)(C)NC(=O)[C@@H]1CN(Cc2cccnc2)CCN1C[C@@H](O)CC(Cc1ccccc1)C(=O)N[C@H]1c2ccccc2C[C@H]1O` (single isomer, unassigned) as the compound, how does the IC95 [1] read?
A: The IC95 was 890 nM.

Q: What about the IC95 [2] of the same compound?
A: Its IC95 is 1000 nM.

Q: What about the IC50 [4] of the same compound?
A: The IC50 was 43.6 nM.

Q: What about the IC95 [5] of the same compound?
A: The IC95 was 45 nM.

Q: And the IC50 [6]?
A: Its IC50 is 61 nM.

Q: What does the source list for `Cc1cccc(C)c1CNC(=O)[C@H]1N(C(=O)[C@@H](O)C[C@@H](Cc2ccccc2)C(=O)N[C@H]2c3ccccc3OC[C@H]2O)CSC1(C)C`?
A: IC50 [3]: 0.03 nM; IC95 [5]: 15 nM

— ChEMBL document CHEMBL1139785, “Synthesis of novel HIV protease inhibitors (PI) with activity against PI-resistant virus” (Bioorg Med Chem Lett, 2007)
